Data as given in patent US20230140635A1, “3-(2-(Aminoethyl)-Indol-4-ol Derivatives, Methods of Preparation Thereof, and the Use as 5-HT2 Receptor Modulators” (priority 2020, published 2023).
pEC50, pIC50, pKi: −log10 of the molar value. Counter-ions that a name gives are not always drawn. Like-named read-outs stand apart in the source and are kept apart here.

Experiments:
[1] = biological target: T1, 5-HT2C (Homo sapiens, UniProt P28335); assay: cell-based; design: expressed in transfected cells; host or cells: HEK293T; conditions: for Emax: read-out: % efficacy vs 5-HT@ 100%, 5-HT2C; for IC50: HEK293T cells, 1 hour at 37° C., read-out: IC50 nM 5-HT2 Gq Dissociation BRET assay, 5-HT2C
T1 sequence (P28335 33-458): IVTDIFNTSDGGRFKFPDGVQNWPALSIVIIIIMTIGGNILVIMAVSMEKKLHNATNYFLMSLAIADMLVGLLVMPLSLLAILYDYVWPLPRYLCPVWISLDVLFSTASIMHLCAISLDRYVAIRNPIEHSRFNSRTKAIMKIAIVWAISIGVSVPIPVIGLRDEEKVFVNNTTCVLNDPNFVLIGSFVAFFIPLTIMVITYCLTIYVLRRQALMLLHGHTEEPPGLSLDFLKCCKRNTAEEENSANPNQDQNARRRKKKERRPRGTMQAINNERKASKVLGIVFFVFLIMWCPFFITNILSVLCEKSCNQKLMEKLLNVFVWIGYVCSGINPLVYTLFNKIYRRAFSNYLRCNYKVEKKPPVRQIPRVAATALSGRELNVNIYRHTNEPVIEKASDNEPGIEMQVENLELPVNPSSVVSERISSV

[2] = biological target: T2, 5-HT2A (Homo sapiens, UniProt P28223); assay: 5-HT2 Gq-Dissociation BRET assay; assay type: cell-based; design: expressed in transfected cells; host or cells: HEK293T; conditions: for Emax: read-out: % efficacy vs 5-HT@ 100%, 5-HT2A; for IC50: HEK293T cells, 1 hour at 37° C.
[3] = biological target: T3, 5-HT2B (Homo sapiens, UniProt P41595); assay: cell-based; assay type: cell-based; design: expressed in transfected cells; host or cells: HEK293T; conditions: for Emax: 1 h, read-out: % efficacy vs 5-HT@ 100%, 5-HT2B; for IC50: HEK293T cells, 1 hour at 37° C., read-out: IC50 nM 5-HT2 Gq Dissociation BRET assay, 5-HT2B
[4] = biological target: T1, 5-HT2C; conditions: read-out: agonist potency at human 5-HT2C receptor; cited from earlier work
[5] = system: patients; conditions: cited from earlier work
[6] = system: dopamine receptors; conditions: cited from earlier work
[7] = biological target: T4, 5-HT3 (Homo sapiens, UniProt P46098); conditions: read-out: Ki 5-HT3; cited from earlier work
T4 sequence (P46098 24-478): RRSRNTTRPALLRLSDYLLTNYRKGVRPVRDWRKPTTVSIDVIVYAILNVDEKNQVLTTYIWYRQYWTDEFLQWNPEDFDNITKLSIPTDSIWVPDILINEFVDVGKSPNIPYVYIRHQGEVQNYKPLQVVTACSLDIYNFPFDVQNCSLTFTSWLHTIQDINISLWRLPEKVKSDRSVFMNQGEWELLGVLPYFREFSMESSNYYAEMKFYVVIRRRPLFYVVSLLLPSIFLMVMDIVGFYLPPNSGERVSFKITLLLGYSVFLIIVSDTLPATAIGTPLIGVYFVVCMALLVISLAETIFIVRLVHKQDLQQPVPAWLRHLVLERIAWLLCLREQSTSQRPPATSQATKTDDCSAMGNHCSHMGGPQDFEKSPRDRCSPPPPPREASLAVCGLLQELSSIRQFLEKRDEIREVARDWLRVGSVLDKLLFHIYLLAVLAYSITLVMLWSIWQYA

[8] = biological target: T3, 5-HT2B; conditions: relative to serotonin at 100%; cited from earlier work
[9] = biological target: T2, 5-HT2A; conditions: relative to serotonin at 100%; cited from earlier work

T3 sequence (P41595 whole entry): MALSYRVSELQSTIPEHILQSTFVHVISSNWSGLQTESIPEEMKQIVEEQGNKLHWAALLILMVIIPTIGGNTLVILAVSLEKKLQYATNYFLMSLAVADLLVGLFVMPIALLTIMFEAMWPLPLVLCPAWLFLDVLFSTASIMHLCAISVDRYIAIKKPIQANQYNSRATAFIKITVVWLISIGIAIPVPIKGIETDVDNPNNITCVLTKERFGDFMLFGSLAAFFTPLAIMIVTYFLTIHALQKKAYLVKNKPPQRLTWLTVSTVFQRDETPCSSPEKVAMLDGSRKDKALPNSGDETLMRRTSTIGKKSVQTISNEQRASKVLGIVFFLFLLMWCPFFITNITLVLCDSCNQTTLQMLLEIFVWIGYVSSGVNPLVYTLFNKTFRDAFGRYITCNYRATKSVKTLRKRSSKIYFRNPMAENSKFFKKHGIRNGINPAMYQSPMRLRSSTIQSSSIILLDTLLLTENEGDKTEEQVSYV
T2 sequence (P28223 whole entry): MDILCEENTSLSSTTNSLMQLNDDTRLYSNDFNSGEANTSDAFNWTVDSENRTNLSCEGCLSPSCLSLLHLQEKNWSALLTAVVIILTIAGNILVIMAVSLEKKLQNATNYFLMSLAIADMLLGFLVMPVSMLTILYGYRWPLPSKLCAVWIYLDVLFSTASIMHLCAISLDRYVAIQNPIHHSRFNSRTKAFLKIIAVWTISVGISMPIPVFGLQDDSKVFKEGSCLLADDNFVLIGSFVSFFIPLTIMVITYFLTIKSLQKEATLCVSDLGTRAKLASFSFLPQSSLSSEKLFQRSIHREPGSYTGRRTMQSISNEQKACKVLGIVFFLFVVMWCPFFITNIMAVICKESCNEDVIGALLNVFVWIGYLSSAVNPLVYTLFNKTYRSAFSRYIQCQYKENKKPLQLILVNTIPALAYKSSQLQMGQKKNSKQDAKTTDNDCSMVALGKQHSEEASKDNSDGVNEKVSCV

| SMILES | Emax [3] [%] | Emax [1] [%] | Emax [2] [%] | IC50 [1] [nM] | IC50 [2] [nM] | IC50 [3] [nM] | other results |
| --- | --- | --- | --- | --- | --- | --- | --- |
| CN(C)CCc1cn(C)c2cccc(O)c12 [Example 1, 3-(2-(dimethylamino)ethyl)-1-methyl-1H-indol-4-ol, reference compound] | – | – | – | – | – | – | pEC50 ([1]; found by the inventors, read-out: functional potency at human 5-HT2C receptors): ~8.00; pEC50 ([2]; found by the inventors, read-out: potency at 5-HT2A receptors): ~7.07 |
| CN(C)CCc1cn(C)c2cccc(O)c12 [Example 1, 3-(2-(dimethylamino)ethyl)-1-methyl-1H-indol-4-ol] | 40 | 92 | 73 | – | – | – | – |
| CN(C)CCc1cn(CC(F)F)c2cccc(O)c12 [Example 3, 1-(2,2-difluoroethyl)-3-(2-(dimethylamino)ethyl)-1H-indol-4-ol] | – | 80 | 48 | 2.7 | 188 | – | 5-HT2 Gq Dissociation BRET assay, 5-HT2B, activity class ([3]; Not Active): Not Active |
| CCCn1cc(CCN(C)C)c2c(O)cccc21 [Example 4, 3-(2-(dimethylamino)ethyl)-1-propyl-1H-indol-4-ol] | – | 67 | 37 | 3 | 1150 | – | 5-HT2 Gq Dissociation BRET assay, 5-HT2B, activity class ([3]; Not Active): Not Active |
| CCCCn1cc(CCN(C)C)c2c(O)cccc21 [Example 6, 1-butyl-3-(2-(dimethylamino)ethyl)-1H-indol-4-ol, reference compound] | – | 48 | 18 | – | 1800 | – | 5-HT2 Gq Dissociation BRET assay, 5-HT2B, activity class [3]: Not Active; pEC50 [4]: ~6.22; pIC50 [1]: 8.79 |
| CN(C)CCc1cn(CC2CC2)c2cccc(O)c12 [Example 8, 1-(cyclopropylmethyl)-3-(2-(dimethylamino)ethyl)-1H-indol-4-ol] | – | 50 | 29 | 0.12 | 28 | – | 5-HT2 Gq Dissociation BRET assay, 5-HT2B, activity class ([3]; Not Active): Not Active |
| CN(C)CCc1cn(C2CCC2)c2cccc(O)c12 [Example 9, 1-cyclobutyl-3-(2-(dimethylamino)ethyl)-1H-indol-4-ol] | – | 44 | 53 | 3 | 4050 | – | 5-HT2 Gq Dissociation BRET assay, 5-HT2B, activity class ([3]; Not Active): Not Active |
| CN(C)CCc1cn(C2COC2)c2cccc(O)c12 [Example 10, 3-(2-(dimethylamino)ethyl)-1-(oxetan-3-yl)-1H-indol-4-ol] | – | 60 | 50 | 1070 | 4000 | – | 5-HT2 Gq Dissociation BRET assay, 5-HT2B, activity class ([3]; Not Active): Not Active |
| CCN(C)CCc1cn(C)c2cccc(O)c12 [Example 12, 3-(2-(ethyl(methyl)amino)ethyl)-1-methyl-1H-indol-4-ol hydrochloride] | 44 | 84 | 66 | 2.8 | 133 | 83 | – |
| CC(C)N(C)CCc1cn(C)c2cccc(O)c12 [Example 13, 3-(2-(isopropyl(methyl)amino)ethyl)-1-methyl-1H-indol-4-ol hydrochloride] | 83 | 105 | 85 | 63.5 | 112 | 42.1 | – |
| CC(C)N(CCc1cn(C)c2cccc(O)c12)C(C)C [Example 14, 3-(2-(diisopropylamino)ethyl)-1-methyl-1H-indol-4-ol hydrochloride] | 68 | 98 | 92 | 393 | 253 | 49.1 | – |
| CN(CCc1cn(C)c2cccc(O)c12)CC1CC1 [Example 16, 3-(2-((cyclopropylmethyl)(methyl)amino)ethyl)-1-methyl-1H-indol-4-ol hydrochloride] | 19 | 54 | 55 | 14.9 | 140 | 0.245 | – |
| CN(CCc1cn(C)c2cccc(O)c12)CC(F)F [Example 17, 3-(2-((2,2-difluoroethyl)(methyl)amino)ethyl)-1-methyl-1H-indol-4-ol hydrochloride] | 24 | 66 | 54 | 833 | 8400 | 376 | – |
| CCN(CC)CCc1cn(C)c2cccc(O)c12 [Example 18, 3-(2-(diethylamino)ethyl)-1-methyl-1H-indol-4-ol hydrochloride] | 56 | 70 | 60 | 31 | 241 | 64 | – |
| Cn1cc(CCNCC2CC2)c2c(O)cccc21 [Example 21, 3-(2-((cyclopropylmethyl)amino)ethyl)-1-methyl-1H-indol-4-ol hydrochloride] | 46 | 40 | 61 | 15 | 497 | 328 | – |
| Cn1cc(CCNCC(F)F)c2c(O)cccc21 [Example 22, 3-(2-((2,2-difluoroethyl)amino)ethyl)-1-methyl-1H-indol-4-ol hydrochloride] | 75 | 82 | 78 | 1890 | 4200 | 1420 | – |
| COc1ccccc1CNCCc1cn(C)c2cccc(O)c12 [Example 24, 3-(2-((2-methoxybenzyl)amino)ethyl)-1-methyl-1H-indol-4-ol hydrochloride] | 56 | 115 | 93 | 1.6 | 10 | 8.3 | – |
| COc1ccccc1CN(C)CCc1cn(C)c2cccc(O)c12 [Example 25, 3-(2-((2-methoxybenzyl)(methyl)amino)ethyl)-1-methyl-1H-indol-4-ol hydrochloride] | 14 | 70 | 39 | 2.4 | 770 | 4000 | – |
| C[C@H]1CNCCc2ccc(Cl)cc21 [Locaserin] | – | – | – | – | – | – | risk of cardiac valvulopathy [5]: no increased risk of cardiac valvulopathy |
| CN(C)CCc1c[nH]c2cccc(O)c12 [Psilocin, psilocin] | – | – | – | – | – | – | effect on dopamine receptors [6]: no significant effect on dopamine receptors; % efficacy vs 5-HT@ 100%, 5-HT2B [3]: 1.07 nM (63%); pKi [7]: < 5.00; Efficacy (in parentheses), 5-HT2B [8]: 45%; Efficacy (in parentheses), 5-HT2A [9]: 43% |
